{"source": "paper PMC6021345", "about": "(Oncotarget, 2018)", "key": {"[1]": {"molecular_target": "T1, CES1 (Homo sapiens, UniProt P23141)", "T1 construct": "purchased Sigma-Aldrich E0162", "T1 sequence (P23141 18-567)": "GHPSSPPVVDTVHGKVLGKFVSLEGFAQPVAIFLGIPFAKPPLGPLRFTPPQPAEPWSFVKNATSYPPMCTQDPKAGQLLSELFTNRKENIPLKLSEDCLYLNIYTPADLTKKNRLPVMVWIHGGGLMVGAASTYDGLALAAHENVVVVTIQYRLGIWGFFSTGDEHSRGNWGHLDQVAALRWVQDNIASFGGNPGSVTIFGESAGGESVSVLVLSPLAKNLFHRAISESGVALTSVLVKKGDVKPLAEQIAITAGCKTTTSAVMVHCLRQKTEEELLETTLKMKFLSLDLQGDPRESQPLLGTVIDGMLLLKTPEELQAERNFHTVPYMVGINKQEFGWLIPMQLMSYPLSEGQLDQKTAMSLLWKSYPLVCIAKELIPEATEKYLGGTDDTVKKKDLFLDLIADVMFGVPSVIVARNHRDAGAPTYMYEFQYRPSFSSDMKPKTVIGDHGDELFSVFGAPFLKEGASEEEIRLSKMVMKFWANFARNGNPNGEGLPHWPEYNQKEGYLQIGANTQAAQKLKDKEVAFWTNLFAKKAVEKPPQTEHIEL", "test": "In vitro CES1 enzyme-based assay (4-NPA substrate)", "type": "biochemical", "settings": "even at 300μM", "method": "The recombinant purified CES2 and CES1 enzymes, and 4-NPA were purchased from Sigma-Aldrich with product IDs E0412, E0162, and N8130, respectively. […] All compounds were dissolved in DMSO at 10mM. In the screening assay, the compounds were diluted in 50mM HEPES and the final compound concentration in the reaction system was adjusted to 50μM. […] The assays were conducted at 300μl total volume in 96-well plates. Reactions consisted of the following: 100μL 50mM HEPES with 20 units of enzyme, 10μL compound solution (various concentrations), 2μL 300mM 4-NAP, and 188μL 50mM HEPES, pH 7.4. The compound and 4-NAP solution were added into the plate first and then the reaction was initiated by the addition of enzyme solution. After 15 minutes incubation at 25°C, absorbance was measured using a microplate reader at 405nm in FLUOstar Omega Microplate Reader. The CES1/CES2 inhibitor compound bis-(4-nitrophenyl) phosphate (BNPP) was used as positive control in all the assays."}, "[2]": {"tested_on": "murine CT-26 tumor-bearing immuno-competent mice", "test": "CPT-11 induced diarrhea in CT-26 tumor-bearing mice", "type": "in vivo", "settings": "for mice with rapid recovery in body weight: 5 days after cessation of CPT-11; for mice that had to be euthanized: by day 12; for mice that never showed any signs of diarrhea: through end of study", "method": "We tested the effect of Hst (20 and 100 mg/kg) on murine CT-26 tumor-bearing immuno-competent mice with CPT-11 (50 mg/kg, roughly equivalent to 5 mg/kg typical human CPT-11 dose) intraperitoneally injected daily from day 1-9. Hst was given from day 1-15 and 30 min before CPT-11 administration on day 1-9. Changes of stool character were recorded twice daily to determine the severity of diarrhea. Fecal staining of skin or lose watery stool was determined as diarrhea but not severe, and only the black sticky stool (bloody diarrhea) was determined as severe diarrhea.\nCT-26 cell line was used to make the tumor bearing mouse model by s.c. injection of 0.02mL cells in PBS at 5×10^7 cells/mL into the posterior mid-dorsum. Tumor volumes were estimated by the formula π/6×a^2×b, where a is the short and b is the long axis. When tumor volume reached roughly 100mm^3 (~10 days after implantation, defined as day 1), mice were randomly separated into 5 groups, 1). CPT-11 only group, receiving CPT-11 50mg/kg + vehicle 2). CPT-11+Hst 20mg/kg, 3). CPT-11+Hst 100mg/kg, 4). Hst 100mg/kg only, and 5) vehicle control group. CPT-11 was administrated by i.p. injection from day 1 to day 9 while Hst were administrated by oral gavage from day 1 to the end of study. An equivalent dosage of saline or CMC were administrated by i.p injection and oral gavage as vehicle, respectively. Mice were examined daily for signs of diarrhea (fecal staining of skin, lose watery stool) and bloody diarrhea (black sticky stool), as well as tumor growth. After sacrifice, jejunum, ileum and colon samples were dissected. Tissues were formalin-fixed and paraffin embedded for histological examination using 4μm-thick, 100μm step serial sections stained with H&E. A histologic score to evaluate inflammation, epithelial changes and mucosa architecture for each slide was calculated as described previously. For immunohistochemical staining, sections were stained with antibodies against Ki67, β-catenin, F4/80, Ly-6B.2 and pSTAT3 (Tyr705) overnight at 4°C. Slides were then washed and stained with the appropriate secondary antibodies. Mounted slides were examined under Olympus BX61 upright microscopy (HMRI Advanced Cellular and Tissue Microscope Core Facility)."}, "[3]": {"tested_on": "different cancer cell lines including CT-26", "test": "Cell viability analysis on cancer cell lines", "type": "cell-based", "settings": "Hst alone", "method": "CT-26 (murine colon cancer), HCT-116 (human colon cancer), CRL-1739 (human stomach gastric cancer) and CRL-1682 (human pancreatic cancer) cell lines were purchased form ATCC. All cells were cultured in T-75 flasks (Falcon). All media were purchased from Life Technologies and supplemented with 10% fetal bovine serum (Sigma) and 1% penicillin-streptomycin (Fisher Scientific). CT-26 and CRL-1682 were cultured in RPMI-1640 medium. CRL-1739 and HCT-116 were cultured in DMEM medium. All cells were cultured in a 37° C, 5% CO2 incubator."}}}
{"smiles": "COc1ccc([C@@H]2CC(=O)c3c(O)cc(O)cc3O2)cc1O", "note": "[hesperetin]", "values": [{"measurement": "CES1 inhibition", "setting": "[1]", "result": "no significant CES1 inhibition"}, {"measurement": "mice with severe diarrhea", "setting": "[2]; CPT-11 + Hst 20 mg/kg oral, day 11", "result": "2 out of 10"}, {"measurement": "mice with rapid recovery in body weight", "setting": "[2]; CPT-11 + Hst 20 mg/kg", "result": 20, "unit": "%"}, {"measurement": "mice that had to be euthanized", "setting": "[2]; CPT-11 + Hst 20 mg/kg", "result": 40, "unit": "%"}, {"measurement": "body weight lost on average", "setting": "[2]; CPT-11 + Hst 20 mg/kg, day 11", "result": 20, "unit": "%"}, {"measurement": "mice that never showed any signs of diarrhea", "setting": "[2]; CPT-11 + Hst 20 mg/kg", "result": 20, "unit": "%"}, {"measurement": "mice with severe diarrhea", "setting": "[2]; CPT-11 + Hst 100 mg/kg oral, until day 12", "result": "2 out of 10"}, {"measurement": "mice with rapid recovery in body weight", "setting": "[2]; CPT-11 + Hst 100 mg/kg", "result": 20, "unit": "%"}, {"measurement": "mice that had to be euthanized", "setting": "[2]; CPT-11 + Hst 100 mg/kg", "result": 20, "unit": "%"}, {"measurement": "body weight lost on average", "setting": "[2]; CPT-11 + Hst 100 mg/kg, day 11", "result": 17, "unit": "%"}, {"measurement": "mice that never showed any signs of diarrhea", "setting": "[2]; CPT-11 + Hst 100 mg/kg", "result": 30, "unit": "%"}, {"measurement": "severe diarrhea prohibited", "setting": "[2]; oral Hst, CPT-11 administered tumor-bearing mice", "result": 80, "unit": "%"}, {"measurement": "cytotoxicity in vitro", "setting": "[3]", "result": "did not show any potent cytotoxicity effects"}]}
